Source: patent US20050059585A1, “Methionine aminopeptidase-2 inhibitors and methods of use thereof” (Praecis Pharmaceuticals Inc., priority 2000, published 2005)

What was measured:
Assay in all cases: tumor cell line panel, SRB growth assay
Format in all cases: cell-based
786-0 = details: Homo sapiens; 786-0, Renal, 48 hours
Procedure: (§1) The compound of example 5 was also evaluated against a panel of cancer cell lines (Alley, M.C. et al. […] Cancer Research 48: 589-601; Grever, M. R., et al. (1992) Seminars in Oncology, Vol. 19, No. 6, pp 622-638; Boyd, M. R., and Paull, K. D. (1995) Drug Development Research 34: 91-109). The human tumor cell lines of the cancer screening panel were grown in RPMI 1640 medium containing 5% fetal bovine serum and 2 mM L-glutamine. Cells were inoculated into 96 well microtiter plates in 100 μL at plating densities ranging from 5,000 to 40,000 cells/well depending on the doubling time of individual cell lines. After cell inoculation, the microtiter plates were incubated at 37° C., 5 % CO2, 95 % air and 100 % relative humidity for 24 hours prior to addition of experimental drugs.
(§2) After the 24 hour incubation period, two plates of each cell line were fixed in situ with TCA, to represent a measurement of the cell population for each cell line at the time of drug addition (Tz). Experimental drugs were solubilized in dimethyl sulfoxide at 400-fold the desired final maximum test concentration and stored frozen prior to use. At the time of drug addition, an aliquot of frozen concentrate was thawed and diluted to twice the desired final maximum test concentration with complete medium containing 50 μg/ml gentamicin. Additional four, 10-fold or ½ log serial dilutions were made to provide a total of five drug concentrations plus control. Aliquots of 100 μl of these different drug dilutions were added to the appropriate microtiter wells already containing 100 μl of medium, resulting in the required final drug concentrations.
(§3) Following drug addition, the plates were incubated for an additional 48 hours at 37° C., 5 % CO2, 95 % air, and 100 % relative humidity. For adherent cells, the assay was terminated by the addition of cold TCA. Cells were fixed in situ by the gentle addition of 50 μl of cold 50 % (w/v) TCA (final concentration, 10% TCA) and incubated for 60 minutes at 4° C. The supernatant was discarded, and the plates were washed five times with tap water and air dried. Sulforhodamine B (SRB) solution (100 μl) at 0.4 % (w/v) in 1 % acetic acid were added to each well, and plates were incubated for 10 minutes at room temperature. After staining, unbound dye was removed by washing five times with 1 % acetic acid and the plates were air dried. Bound stain was subsequently solubilized with 10 mM trizma base, and the absorbance was read on an automated plate reader at a wavelength of 515 nm. For suspension of the cells, the methodology used was the same except that the assay was terminated by fixing settled cells at the bottom of the wells by gently adding 50 μl of 80 % TCA (final concentration, 16% TCA). Using the seven absorbance measurements [time zero, (Tz), control growth, (C), and test growth in the presence of drug at the five concentration levels (Ti)], the percentage growth was calculated at each of the drug concentrations levels.
(§4) Percentage growth inhibition was calculated as: [(Ti−Tz)/(C−Tz)]×100 for concentrations for which Ti>/=Tz [(Ti−Tz)/Tz]×100 for concentrations for which Ti<Tz.
(§5) Growth inhibition of 50% (GI50) was calculated from [(Ti−Tz)/(C−Tz)]×100=50, which is the drug concentration resulting in a 50% reduction in the net protein increase (as measured by SRB staining) in control cells during the drug incubation. The G150 was calculated for each of the cell lines if the level of activity is reached; however, if the effect was not reached or is exceeded, the value for that parameter is expressed as greater or less than the maximum (10^−4 M) or minimum (10^−8 M) concentration tested.

M14 = details: Homo sapiens; M14, Melanoma, 48 hours
Procedure: as §1, §2, §3, §4, §5

K-562 = details: Homo sapiens, K562; K-562, Leukemia, 48 hours
Procedure: as §1, §2, §3, §4, §5

NCI-H322M = details: Homo sapiens, Non-Small Cell Lung, 48 hours
Procedure: as §1, §2, §3, §4, §5

SW-620 = details: Homo sapiens; SW-620, Colon, 48 hours
Procedure: as §1, §2, §3, §4, §5

HT29 = details: Homo sapiens, HT-29; HT29, Colon, 48 hours
Procedure: as §1, §2, §3, §4, §5

IGR-OV1 = details: Homo sapiens, IGROV-1; IGR-OV1, Ovarian, 48 hours
Procedure: as §1, §2, §3, §4, §5

RXF 393 = details: Homo sapiens; RXF 393, Renal, 48 hours
Procedure: as §1, §2, §3, §4, §5

A498 = details: Homo sapiens; A498, Renal, 48 hours
Procedure: as §1, §2, §3, §4, §5

SK-OV-3 = details: Homo sapiens; SK-OV-3, Ovarian, 48 hours
Procedure: as §1, §2, §3, §4, §5

NCI-H23 = details: Homo sapiens; NCI-H23, Non-Small Cell Lung, 48 hours
Procedure: as §1, §2, §3, §4, §5

HOP-62 = details: Homo sapiens; HOP-62, Non-Small Cell Lung, 48 hours
Procedure: as §1, §2, §3, §4, §5

SR = details: Homo sapiens, Leukemia, 48 hours
Procedure: as §1, §2, §3, §4, §5

SK-MEL-28 = details: Homo sapiens; SK-MEL-28, Melanoma, 48 hours
Procedure: as §1, §2, §3, §4, §5

SNB-19 = details: Homo sapiens; SNB-19, CNS, 48 hours
Procedure: as §1, §2, §3, §4, §5

HL-60(TB) = details: Homo sapiens, Leukemia, 48 hours
Procedure: as §1, §2, §3, §4, §5

DU-145 = details: Homo sapiens; DU-145, Prostate, 48 hours
Procedure: as §1, §2, §3, §4, §5

EKVX = details: Homo sapiens, Non-Small Cell Lung, 48 hours
Procedure: as §1, §2, §3, §4, §5

OVCAR-5 = details: Homo sapiens; OVCAR-5, Ovarian, 48 hours
Procedure: as §1, §2, §3, §4, §5

OVCAR-3 = details: Homo sapiens; OVCAR-3, Ovarian, 48 hours
Procedure: as §1, §2, §3, §4, §5

SF-539 = details: Homo sapiens; SF-539, CNS, 48 hours
Procedure: as §1, §2, §3, §4, §5

## CO[C@@H]1[C@H](OC(=O)N[C@@H](C(N)=O)C(C)C)CC[C@]2(CO2)[C@H]1[C@@]1(C)O[C@@H]1CC=C(C)C [Example 5, (1-Carbamoyl-2-methyl-propyl)-carbamic acid-(3R, 4S, 5S, 6R )-5-methoxy-4-[(2R, 3R)-2-methyl-3-(3-methyl-but-2-enyl)-oxiranyl]-1-oxa-spiro[2.5]oct-6-yl ester]
786-0
  GI50: 16.1 µM
M14
  GI50: < 0.01 µM
K-562
  GI50: 64.4 µM
NCI-H322M
  GI50: 0.0468 µM
SW-620
  GI50: > 100 µM
HT29
  GI50: 16.1 µM
IGR-OV1
  GI50: < 0.01 µM
RXF 393
  GI50: 40.2 µM
A498
  GI50: > 100 µM
SK-OV-3
  GI50: 7.37 µM
NCI-H23
  GI50: 6.34 µM
HOP-62
  GI50: < 0.01 µM
SR
  GI50: < 0.01 µM
SK-MEL-28
  GI50: 5.96 µM
SNB-19
  GI50: < 0.01 µM
HL-60(TB)
  GI50: 21.7 µM
DU-145
  GI50: < 0.01 µM
EKVX
  GI50: 20.8 µM
OVCAR-5
  GI50: 0.0135 µM
OVCAR-3
  GI50: 41.8 µM
SF-539
  GI50: 20.6 µM
